According to publication PMC5218480 (PLoS ONE, 2017):

System: MV-4-11 cells
Assay: Gene expression microarray analysis (Affymetrix PrimeView) and GSEA
Assay type: cell-based, human
Design: RFU PODN (11730768_x_at) / Fold change /veh PODN (11730768_x_at) / RFU LINC00158 (11744669_a_at) / Fold change /veh LINC00158 (11744669_a_at) / RFU DUSP10 (11751237_a_at) / Fold change /veh DUSP10 (11751237_a_at) / RFU ID3 (11757404_x_at) / Fold change /veh ID3 (11757404_x_at) / RFU PLEKHG5 (11737974_s_at) / Fold change /veh PLEKHG5 (11737974_s_at) / RFU LRRC4B (11730491_at) / Fold change /veh LRRC4B (11730491_at) / RFU GIMAP4 (11747438_a_at) / Fold change /veh GIMAP4 (11747438_a_at) / RFU KRT8 (11758183_x_at) / Fold change /veh KRT8 (11758183_x_at) / RFU CNN1 (11734310_a_at) / Fold change /veh CNN1 (11734310_a_at) / RFU VPS37D (11726825_at) / Fold change /veh VPS37D (11726825_at) / RFU C10orf10 (11716522_x_at) / Fold change /veh C10orf10 (11716522_x_at) / RFU KIR2DL2 /// KIR2DL4 /// KIR2DL5A /// KIR2DL5B /// KIR2DS1 /// KIR2DS2 /// KIR2DS3 /// KIR2DS4 /// KIR3DL3 /// KIR3DL3 /// KIR3DS1 (11738374_at) / Fold change /veh KIR2DL2 /// KIR2DL4 /// KIR2DL5A /// KIR2DL5B /// KIR2DS1 /// KIR2DS2 /// KIR2DS3 /// KIR2DS4 /// KIR3DL3 /// KIR3DL3 /// KIR3DS1 (11738374_at) / RFU C1QL1 (11718748_at) / Fold change /veh C1QL1 (11718748_at) / RFU TMPRSS4 (11747572_a_at) / Fold change /veh TMPRSS4 (11747572_a_at) / RFU HAMP (11756126_x_at) / Fold change /veh HAMP (11756126_x_at) / RFU RNFT2 (11725882_a_at) / Fold change /veh RNFT2 (11725882_a_at) / RFU NR4A2 (11747474_a_at) / Fold change /veh NR4A2 (11747474_a_at) / RFU ABCC12 (11746883_a_at) / Fold change /veh ABCC12 (11746883_a_at) / RFU TMEM136 (11760407_x_at) / Fold change /veh TMEM136 (11760407_x_at) / RFU CLDN22 /// WWC2 (11732394_at) / Fold change /veh CLDN22 /// WWC2 (11732394_at) / RFU HLA-DPB1 (11760878_x_at) / Fold change /veh HLA-DPB1 (11760878_x_at) / RFU SPINT1 (11716480_a_at) / Fold change /veh SPINT1 (11716480_a_at) / RFU GAP43 (11754022_s_at) / Fold change /veh GAP43 (11754022_s_at) / RFU A4GNT (11735810_at) / Fold change /veh A4GNT (11735810_at) / RFU PRB3 (11715151_x_at) / Fold change /veh PRB3 (11715151_x_at) / RFU TUBB4B (11761932_at) / Fold change /veh TUBB4B (11761932_at) / RFU CAPN14 (11732068_a_at) / Fold change /veh CAPN14 (11732068_a_at) / RFU TMCC2 (11721928_a_at) / Fold change /veh TMCC2 (11721928_a_at) / RFU IRGQ (11745062_a_at) / Fold change /veh IRGQ (11745062_a_at) / RFU FAM174B (11720279_a_at) / Fold change /veh FAM174B (11720279_a_at) / RFU TMPRSS4 (11748680_a_at) / Fold change /veh TMPRSS4 (11748680_a_at) / RFU FAM212B (11763350_a_at) / Fold change /veh FAM212B (11763350_a_at) / RFU PLEKHG5 (11743358_a_at) / Fold change /veh PLEKHG5 (11743358_a_at) / RFU ZSCAN30 (11745921_a_at) / Fold change /veh ZSCAN30 (11745921_a_at) / RFU CMKLR1 (11741424_a_at) / Fold change /veh CMKLR1 (11741424_a_at) / RFU LOC101060620 /// MAPK8IP1 (11723275_at) / Fold change /veh LOC101060620 /// MAPK8IP1 (11723275_at) / RFU SPTSSB (11747773_x_at) / Fold change /veh SPTSSB (11747773_x_at) / RFU PRSS12 (11739890_at) / Fold change /veh PRSS12 (11739890_at) / RFU BIN1 (11741810_x_at) / Fold change /veh BIN1 (11741810_x_at) / RFU WNT11 (11732464_a_at) / Fold change /veh WNT11 (11732464_a_at) / RFU C10orf10 (11716521_a_at) / Fold change /veh C10orf10 (11716521_a_at) / RFU C5orf56 (11738089_at) / Fold change /veh C5orf56 (11738089_at) / RFU CYB561 (11721691_x_at) / Fold change /veh CYB561 (11721691_x_at) / RFU ANKRD19P (11752326_a_at) / Fold change /veh ANKRD19P (11752326_a_at) / RFU OR2T12 /// OR2T33 /// OR2T8 (11738714_s_at) / Fold change /veh OR2T12 /// OR2T33 /// OR2T8 (11738714_s_at) / RFU VCAN (11748164_a_at) / Fold change /veh VCAN (11748164_a_at) / RFU JSRP1 (11732532_at) / Fold change /veh JSRP1 (11732532_at) / RFU KRTAP10-11 (11738290_x_at) / Fold change /veh KRTAP10-11 (11738290_x_at) / RFU MYO3A (11730013_a_at) / Fold change /veh MYO3A (11730013_a_at) / RFU EBF3 (11725865_a_at) / Fold change /veh EBF3 (11725865_a_at) / RFU CAMK2N1 (11719241_x_at) / Fold change /veh CAMK2N1 (11719241_x_at) / RFU C5orf56 (11738088_a_at) / Fold change /veh C5orf56 (11738088_a_at) / RFU OLFML3 (11715873_a_at) / Fold change /veh OLFML3 (11715873_a_at) / RFU LOC100653217 /// NTM (11731650_a_at) / Fold change /veh LOC100653217 /// NTM (11731650_a_at) / RFU MAPK11 (11762145_a_at) / Fold change /veh MAPK11 (11762145_a_at) / RFU FIZ1 (11724087_x_at) / Fold change /veh FIZ1 (11724087_x_at) / RFU OASL (11726364_x_at) / Fold change /veh OASL (11726364_x_at) / RFU SOX15 (11748057_x_at) / Fold change /veh SOX15 (11748057_x_at) / RFU CD79A (11719716_a_at) / Fold change /veh CD79A (11719716_a_at) / RFU HIST1H1D (11736915_at) / Fold change /veh HIST1H1D (11736915_at) / RFU CASKIN2 (11723855_a_at) / Fold change /veh CASKIN2 (11723855_a_at) / RFU LOC730098 (11760151_x_at) / Fold change /veh LOC730098 (11760151_x_at) / RFU OR4N2 (11742367_at) / Fold change /veh OR4N2 (11742367_at) / RFU PRRT2 (11749266_a_at) / Fold change /veh PRRT2 (11749266_a_at) / RFU SNX32 (11753110_a_at) / Fold change /veh SNX32 (11753110_a_at) / RFU CDHR5 (11726645_a_at) / Fold change /veh CDHR5 (11726645_a_at) / RFU RCAN1 (11760418_a_at) / Fold change /veh RCAN1 (11760418_a_at) / RFU FAM167A (11723789_a_at) / Fold change /veh FAM167A (11723789_a_at) / RFU FAM26E (11764081_at) / Fold change /veh FAM26E (11764081_at) / RFU ISYNA1 (11749810_s_at) / Fold change /veh ISYNA1 (11749810_s_at) / RFU ACY1 (11761880_at) / Fold change /veh ACY1 (11761880_at) / RFU 11764098_at / Fold change /veh 11764098_at / RFU SAMD14 (11745864_x_at) / Fold change /veh SAMD14 (11745864_x_at) / RFU NPB (11741838_a_at) / Fold change /veh NPB (11741838_a_at) / RFU TMPRSS6 (11731388_a_at) / Fold change /veh TMPRSS6 (11731388_a_at) / RFU KRTAP10-2 (11738614_at) / Fold change /veh KRTAP10-2 (11738614_at) / RFU ARHGAP8 /// PRR5-ARHGAP8 (11727945_x_at) / Fold change /veh ARHGAP8 /// PRR5-ARHGAP8 (11727945_x_at) / RFU KRTAP5-7 /// NADSYN1 (11734609_at) / Fold change /veh KRTAP5-7 /// NADSYN1 (11734609_at) / RFU RASL12 (11751679_a_at) / Fold change /veh RASL12 (11751679_a_at) / RFU CDKN2B (11736163_a_at) / Fold change /veh CDKN2B (11736163_a_at) / RFU PRF1 (11729649_at) / Fold change /veh PRF1 (11729649_at) / RFU, ZNF638 /// ZNF638-IT1 / Fold change vs veh, ZNF638 /// ZNF638-IT1 / RFU, PANK3 / Fold change vs veh, PANK3 / RFU, SH3YL1 / Fold change vs veh, SH3YL1 / RFU, ZEB2 / Fold change vs veh, ZEB2 / RFU, NRIP1 / Fold change vs veh, NRIP1 / RFU, PTTG1IP / Fold change vs veh, PTTG1IP / RFU, CAPN2 / Fold change vs veh, CAPN2 / RFU, MED14 / Fold change vs veh, MED14 / RFU, SNORA58 / Fold change vs veh, SNORA58 / RFU, C1orf63 / Fold change vs veh, C1orf63 / RFU, LRRFIP1 / Fold change vs veh, LRRFIP1 / RFU, NDUFAF7 / Fold change vs veh, NDUFAF7 / RFU, SLC12A2 / Fold change vs veh, SLC12A2 / RFU, IBTK / Fold change vs veh, IBTK / RFU, ESF1 / Fold change vs veh, ESF1 / Fold change vs veh, TMEM50B / RFU, TAOK1 / Fold change vs veh, TAOK1 / RFU, ACBD3 / Fold change vs veh, ACBD3 / RFU, TMA16 / Fold change vs veh, TMA16 / RFU, RWDD3 / Fold change vs veh, RWDD3 / RFU, BCAT1 / Fold change vs veh, BCAT1 / RFU, EDEM3 / Fold change vs veh, EDEM3 / RFU, TMEM33 / Fold change vs veh, TMEM33 / RFU, WDR75 / Fold change vs veh, WDR75 / RFU, AHCTF1 / Fold change vs veh, AHCTF1 / RFU, TFRC / Fold change vs veh, TFRC / RFU, ZDHHC17 / Fold change vs veh, ZDHHC17 / RFU, NOM1 / Fold change vs veh, NOM1 / RFU, ARL8B / Fold change vs veh, ARL8B / RFU, ZBTB11 / Fold change vs veh, ZBTB11 / RFU, TAMM41 / Fold change vs veh, TAMM41 / RFU, KIAA1704 /// LOC100996395 / Fold change vs veh, KIAA1704 /// LOC100996395 / RFU, ING1 / Fold change vs veh, ING1 / RFU, TRMT61B / Fold change vs veh, TRMT61B / RFU, FUBP3 / Fold change vs veh, FUBP3 / RFU, TP53 / Fold change vs veh, TP53 / RFU, TNKS2 / Fold change vs veh, TNKS2 / RFU, ZFP14 / Fold change vs veh, ZFP14 / RFU, ACTR2 / Fold change vs veh, ACTR2 / RFU, PPP3R1 / Fold change vs veh, PPP3R1 / RFU, PIK3R1 / Fold change vs veh, PIK3R1 / RFU, HNRNPA1 / Fold change vs veh, HNRNPA1 / RFU, RNF170 / Fold change vs veh, RNF170 / RFU, ZNF28 / Fold change vs veh, ZNF28 / RFU, RNGTT / Fold change vs veh, RNGTT / RFU, OGT / Fold change vs veh, OGT / RFU, BRD1 / Fold change vs veh, BRD1 / RFU, MARS / Fold change vs veh, MARS / RFU, ZNF655 / Fold change vs veh, ZNF655 / RFU, FAHD1 / Fold change vs veh, FAHD1 / RFU, BDP1 / Fold change vs veh, BDP1 / RFU, LRRCC1 / Fold change vs veh, LRRCC1 / RFU, ARID1A / Fold change vs veh, ARID1A / RFU, ZNF146 / Fold change vs veh, ZNF146 / RFU, ZNF330 / Fold change vs veh, ZNF330 / RFU, GPN3 / Fold change vs veh, GPN3 / RFU, C9orf123 / Fold change vs veh, C9orf123 / RFU, N4BP2L2 / Fold change vs veh, N4BP2L2 / RFU, ARFIP1 / Fold change vs veh, ARFIP1 / RFU, FAM179B / Fold change vs veh, FAM179B / RFU, BCL10 / Fold change vs veh, BCL10 / RFU, UHRF1BP1L / Fold change vs veh, UHRF1BP1L / RFU, BET1 / Fold change vs veh, BET1 / RFU, CNOT2 / Fold change vs veh, CNOT2 / RFU, ZNF268 / Fold change vs veh, ZNF268 / Fold change vs veh, ZNF507 / RFU, DGCR2 / Fold change vs veh, DGCR2 / RFU, WDSUB1 / Fold change vs veh, WDSUB1 / Fold change vs veh, HSP90B1 /// MIR3652 / RFU, ADSS / Fold change vs veh, ADSS / RFU, GK / Fold change vs veh, GK / RFU, ZNF148 / Fold change vs veh, ZNF148 / RFU, TAF9 / Fold change vs veh, TAF9 / RFU, SLC1A5 / Fold change vs veh, SLC1A5 / RFU, SLMO2 / Fold change vs veh, SLMO2 / RFU, ABCC4 / Fold change vs veh, ABCC4 / RFU, LOC101060439 /// RAP1B / Fold change vs veh, LOC101060439 /// RAP1B / RFU, RFX7 / Fold change vs veh, RFX7 / RFU, GTPBP10 / Fold change vs veh, GTPBP10 / RFU, CNEP1R1 / Fold change vs veh, CNEP1R1 / RFU, BIVM-ERCC5 /// ERCC5 / Fold change vs veh, BIVM-ERCC5 /// ERCC5 / RFU, ILF3 / Fold change vs veh, ILF3 / RFU 11762660_at / Fold change /veh 11762660_at / RFU VCAN (11757783_s_at) / Fold change /veh VCAN (11757783_s_at) / RFU DDX43 (11728927_at) / Fold change /veh DDX43 (11728927_at) / RFU KRT8 (11758188_x_at) / Fold change /veh KRT8 (11758188_x_at) / RFU NKD1 (11759106_at) / Fold change /veh NKD1 (11759106_at) / RFU SRD5A1 (11742802_a_at) / Fold change /veh SRD5A1 (11742802_a_at) / RFU TPSAB1 /// TPSB2 (11721975_s_at) / Fold change /veh TPSAB1 /// TPSB2 (11721975_s_at) / RFU GSTM3 (11746129_a_at) / Fold change /veh GSTM3 (11746129_a_at) / RFU IL23R (11737362_x_at) / Fold change /veh IL23R (11737362_x_at) / RFU TMEM51 (11727254_a_at) / Fold change /veh TMEM51 (11727254_a_at) / RFU PIWIL2 (11732686_x_at) / Fold change /veh PIWIL2 (11732686_x_at) / RFU ORM1 (11744905_x_at) / Fold change /veh ORM1 (11744905_x_at) / RFU CCDC152 (11743942_at) / Fold change /veh CCDC152 (11743942_at) / RFU ECM1 (11717891_a_at) / Fold change /veh ECM1 (11717891_a_at) / RFU IL23R (11748794_a_at) / Fold change /veh IL23R (11748794_a_at) / RFU TNFAIP8L3 (11732012_x_at) / Fold change /veh TNFAIP8L3 (11732012_x_at) / RFU MBOAT4 (11741988_at) / Fold change /veh MBOAT4 (11741988_at) / RFU 11764193_at / Fold change /veh 11764193_at / RFU TMEM53 (11763286_at) / Fold change /veh TMEM53 (11763286_at) / RFU MAGEB2 (11727129_at) / Fold change /veh MAGEB2 (11727129_at) / RFU TMEM200A (11744735_a_at) / Fold change /veh TMEM200A (11744735_a_at) / RFU CCDC152 (11751479_a_at) / Fold change /veh CCDC152 (11751479_a_at) / RFU FAM211A (11726209_a_at) / Fold change /veh FAM211A (11726209_a_at) / RFU RGS16 (11746705_a_at) / Fold change /veh RGS16 (11746705_a_at) / RFU VCAN (11755009_s_at) / Fold change /veh VCAN (11755009_s_at) / RFU RHOB (11743442_s_at) / Fold change /veh RHOB (11743442_s_at) / RFU RGS16 (11720943_a_at) / Fold change /veh RGS16 (11720943_a_at) / RFU RGS16 (11720944_at) / Fold change /veh RGS16 (11720944_at) / RFU, VPS4B / Fold change vs veh, VPS4B / RFU, CREB1 / Fold change vs veh, CREB1 / RFU, DNAJC13 / Fold change vs veh, DNAJC13 / RFU, GNAQ / Fold change vs veh, GNAQ / RFU, CDK5R1 / Fold change vs veh, CDK5R1 / RFU, ZRANB3 / Fold change vs veh, ZRANB3 / RFU, CUL4A / Fold change vs veh, CUL4A / RFU, CCNY / Fold change vs veh, CCNY / RFU, UFL1 / Fold change vs veh, UFL1 / RFU, COG3 / Fold change vs veh, COG3 / RFU, DIAPH2 / Fold change vs veh, DIAPH2 / RFU, SKA2 / Fold change vs veh, SKA2 / RFU, AFF3 / Fold change vs veh, AFF3 / RFU, LMF1 / Fold change vs veh, LMF1 / RFU, IPO11 / Fold change vs veh, IPO11 / RFU, DFFB / Fold change vs veh, DFFB / RFU, FOXP1 / Fold change vs veh, FOXP1 / RFU, CARD8 / Fold change vs veh, CARD8 / RFU, STRN3 / Fold change vs veh, STRN3 / RFU, ADK / Fold change vs veh, ADK / RFU, RASSF2 / Fold change vs veh, RASSF2 / RFU, WIPF1 / Fold change vs veh, WIPF1 / RFU, LARP1B / Fold change vs veh, LARP1B / RFU, RASA1 / Fold change vs veh, RASA1 / RFU, RB1 / Fold change vs veh, RB1 / RFU, PPFIA1 / Fold change vs veh, PPFIA1 / RFU, MAT2A / Fold change vs veh, MAT2A / RFU, CCT5 / Fold change vs veh, CCT5 / RFU, WDR92 / Fold change vs veh, WDR92 / RFU, CUX1 / Fold change vs veh, CUX1 / RFU, TTC7A / Fold change vs veh, TTC7A / RFU, TMEM135 / Fold change vs veh, TMEM135 / RFU, DEPTOR / Fold change vs veh, DEPTOR / RFU, CPM / Fold change vs veh, CPM / RFU, DNAJB6 / Fold change vs veh, DNAJB6 / RFU, CACNA2D3 / Fold change vs veh, CACNA2D3 / RFU, DTX4 / Fold change vs veh, DTX4 / RFU, TFCP2 / Fold change vs veh, TFCP2 / RFU, GMCL1 /// GMCL1P1 / Fold change vs veh, GMCL1 /// GMCL1P1 / RFU, AEBP2 / Fold change vs veh, AEBP2 / RFU, SNHG1 /// SNORD22 /// SNORD25 /// SNORD26 /// SNORD27 /// SNORD28 /// SNORD29 /// SNORD31 / Fold change vs veh, SNHG1 /// SNORD22 /// SNORD25 /// SNORD26 /// SNORD27 /// SNORD28 /// SNORD29 /// SNORD31 / Fold change (Aza/veh), C12orf56 (ProbeSet 11735607_a_at) / Fold change (ACY-1035/veh), C12orf56 (ProbeSet 11735607_a_at) / Fold change (Aza/veh), FGFR1OP (ProbeSet 11751329_s_at) / Fold change (ACY-1035/veh), FGFR1OP (ProbeSet 11751329_s_at) / Fold change (Aza/veh), VPS36 (ProbeSet 11739960_a_at) / Fold change (ACY-1035/veh), VPS36 (ProbeSet 11739960_a_at) / RFU SYPL1 (11715823_x_at) / Fold change /veh SYPL1 (11715823_x_at) / RFU IGFBP7 (11715501_s_at) / Fold change /veh IGFBP7 (11715501_s_at) / RFU REEP3 (11722064_at) / Fold change /veh REEP3 (11722064_at) / RFU IGLL1 (11728026_x_at) / Fold change /veh IGLL1 (11728026_x_at): dose or concentration left out as unconfirmed
Settings: ProbeSet 11727545_at; LIST B

For Nc1ncn([C@@H]2O[C@H](CO)[C@@H](O)[C@H]2O)c(=O)n1 [azacitidine], the “RFU, PANK3” value was 82.98 RFU.
